Article PMC10065799, “High-throughput profiling of sequence recognition by tyrosine kinases and SH2 domains using bacterial peptide display” (eLife, 2023)

T1: c-Abl kinase domain (Mus musculus, UniProt P00520)
T1 sequence (P00520 242-493 limits assumed): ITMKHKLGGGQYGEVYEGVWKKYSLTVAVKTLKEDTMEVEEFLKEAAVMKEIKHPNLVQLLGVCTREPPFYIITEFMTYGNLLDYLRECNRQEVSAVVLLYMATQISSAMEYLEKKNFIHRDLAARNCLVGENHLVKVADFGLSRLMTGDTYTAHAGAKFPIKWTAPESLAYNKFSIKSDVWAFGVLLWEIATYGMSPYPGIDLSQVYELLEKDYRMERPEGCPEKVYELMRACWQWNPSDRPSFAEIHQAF


Key:
c-Src kinase domain [1] = biological target: T2, c-Src kinase domain (Homo sapiens, UniProt P12931); test: pTyr-Var library bacterial peptide display kinase screen (enrichment scores); type: biochemical; details: sheet "Src";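 also: log2 fold change in enrichment of variant over reference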
EPHB2 kinase domain = test: as above; type: biochemical, human; details: sheet EPHB2;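 also: log2 fold change in enrichment of variant over reference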
c-Abl kinase domain [2] = biological target: T1, c-Abl kinase domain; test: as above; type: biochemical
EPHB1 kinase domain = test: as above; type: biochemical, human; details: for Screen (variant relative to reference peptide, measured in the pTyr-Var library screen): sheet "EPHB1", variant seq vs reference seq, bacterial peptide display enrichment; for Screen: sheet EPHB1, effect of the variant peptide relative to its reference peptide in the pTyr-Var library screen (enrichment scores)
c-Src kinase domain [3] = biological target: T2, c-Src kinase domain; test: RP-HPLC assay to measure peptide phosphorylation kinetics; type: biochemical; details: purified peptide substrate
c-Abl kinase domain [4] = biological target: T1, c-Abl kinase domain; test: ADP-Quest continuous fluorimetric kinase assay (Michaelis-Menten parameters and initial rates); type: biochemical; details: c-Abl kinase domain 10 nM, 100 μM ATP, 37 °C, three to five replicates, error = standard error of global Michaelis-Menten fit
Excerpt: A fluorescence-based assay from Eurofins (ADP Quest) was used to measure the Michaelis-Menten kinetic parameters for phosphorylation of the consensus peptides by purified tyrosine kinase domains. In this assay, ADP production as a result of kinase activity is coupled to the production of resorufin, a fluorophore that emits signal at 590 nm. For all experiments, the assay reactions were set up as described in the provided assay kit protocol, in a 384 well plate format. The peptide solutions were serially diluted in 100 mM Tris, pH 8.0, and the kinases were diluted to 50 nM in buffer (10 mM HEPES, 100 mM NaCl, 1 mM TCEP, 5 mM MgCl2, 10% (v/v) glycerol). The final reaction mixtures contained 10 nM of kinase with 100 μM of ATP. […] Phosphorylation reaction progress was monitored by measuring fluorescence at excitation 530 nm and emission 590 nm every 2 min at 37 °C on a plate reader (BioTek Synergy Neo 2). The fluorescence units (RFU) were converted to μM ADP by comparison to a standard curve, and the initial rates were extracted from the linear regime of the reaction progress curves. Initial rates were also measured for samples containing each kinase but lacking a peptide substrate, to account for background ATP hydrolysis. This background rate was subtracted from the rates measured in the presence of peptide. […]

Fer kinase domain = test: pTyr-Var library bacterial peptide display kinase screen (enrichment scores); type: biochemical, mouse; details: sheet "Fer";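 also: log2 fold change in enrichment of variant over reference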
[5] = biological target: human c-Src kinase domain (residues 260-528) (human) (UniProt P12931)
[6] = variant peptide versus its reference peptide in the pTyr-Var library screen
[7] = effect of variant peptide relative to its reference peptide in the pTyr-Var library screen (enrichment scores)
[8] = effect of the variant relative to its reference peptide in the pTyr-Var library screen
[9] = effect of the variant peptide relative to its reference peptide in the pTyr-Var library screen
[10] = fig5-data2, sheet "Abl", Screen for the variant/reference peptide pair, pTyr-Var library
[11] = variant peptide relative to its reference peptide, pTyr-Var library screen enrichment
[12] = value of the variant peptide against its reference peptide in the pTyr-Var library screen with Fer

Molecule | Screen (EPHB2 kinase domain; [7]) | Screen (EPHB1 kinase domain) | Screen (Fer kinase domain; [12]) | further results
ADARMYGDLPW [PLP1_Y207_V209D] | -2.321 |  |  | Screen (c-Src kinase domain [1]; [6]): -1.273
ADARMYGVLLW [PLP1_Y207_P211L] | -1.961 |  |  | Screen (c-Src kinase domain [1]; [6]): -0.7224
ADELEYSRTGL [MMUT_Y287_G284E] | -1.178 |  |  | 
ADGLEYSRTEL [MMUT_Y287_G291E] | -1.172 |  |  | 
ATKNDYWAMLA [WWOX_Y287_P282A] |  |  |  | Screen (c-Abl kinase domain [2]; sheet "Abl", effect of variant peptide relative to its reference peptide in pTyr-Var library screen (enrichment)): -2.008; Screen (variant relative to reference peptide, measured in the pTyr-Var library screen) (EPHB1 kinase domain): -0.006784; Screen (EPHB2 kinase domain; [8]): -0.4918
Ac-AGQEKYSAMRD-NH2 [HRAS-Y64-E63K] |  |  |  | Phosphorylation Rate (c-Src kinase domain [3]): 0.027 s⁻¹
Ac-GAPEVIYATPGAKKKG-NH2 [AblTide (2014), previously reported c-Abl consensus substrate] |  |  |  | Km (c-Abl kinase domain [4]): 35 ± 8 µM; kcat (c-Abl kinase domain [4]): 2.5±0.2 s^–1
Ac-GPDEPIYDMFPFKKKG-NH2 [Src Consensus (C-2P), Src Consensus variant with –2 Pro] |  |  |  | Phosphorylation Rate (c-Src kinase domain [3]): 12.667 s⁻¹
Ac-GPDESIYDMFPFKKKG-NH2 [Src Consensus (C-2S), Src Consensus variant with –2 Ser] |  |  |  | Phosphorylation Rate (c-Src kinase domain [3]): 5.171 s⁻¹
Ac-LERFIYNREEL-NH2 [HLA-DPB1_Y59_F64L_YF, pTyr-Var library variant peptide, non-canonical c-Src substrate] |  |  |  | Phosphorylation Rate (c-Src kinase domain [3]): 0.258 s⁻¹; Screen (c-Src kinase domain [1]; [9]): 0.2529
Ac-WDLSEYSFKDP-NH2 [ITGA3_Y237_YF] |  |  |  | Phosphorylation Rate (c-Src kinase domain [3]): 0.555 s⁻¹
EVEPTYVVLFD [ERCC4_Y577_R576T_YF] | 2.191 | 1.659 |  | Screen (c-Src kinase domain [1]; [9]): 2.973
FCRITYDIFPF [INTS13_Y67_M66T_YF] | 0.3565 | -0.0851 |  | Screen (c-Src kinase domain [1]; [9]): -0.3434; Screen (c-Abl kinase domain [2]; [10]): 1.32
FEDTLYTVLHR [UNC13D_Y61_A59T_YF] |  |  |  | Screen (c-Src kinase domain [1]; [6]): -0.1643; Screen (Fer kinase domain; [11]): -0.9596; Screen (variant relative to reference peptide, measured in the pTyr-Var library screen) (EPHB1 kinase domain): -0.7483; Screen (EPHB2 kinase domain; [8]): -1.461
FPLELYERVRI [PRKCG_Y312_M317I_YF] |  | -0.1732 | 0.4614 | Screen (c-Abl kinase domain [2]; [10]): 2.263
FQEPVYSVAFS [TBL1X_Y509_H504Y_YF] | -0.3359 |  |  | Screen (c-Src kinase domain [1]; [6]): -0.2752; Screen (Fer kinase domain; [11]): -0.4973; Screen (variant relative to reference peptide, measured in the pTyr-Var library screen) (EPHB1 kinase domain): -0.4923
GHEFIYVDRMQ [PDGFRB_Y581_P584R_YF] | -3.317 | -3.432 | -2.31 | Screen (c-Src kinase domain [1]; [6]): -0.3711
GREFIYVDPMQ [PDGFRA_Y574_H570R_YF] | -0.4123 | -0.6275 | -1.733 | Screen (c-Src kinase domain [1]; [6]): -0.9351
HHIDFYKETTN [FGFR1_Y654_K656E_YF] | 2.27 |  |  | 
HNLNFYKKTTN [FGFR3_Y648_D646N_YF] | -1.314 | -1.233 | -1.085 | Screen (c-Src kinase domain [1]; [9]): -1.956
HNLPIYEGFAL [ACTA1_Y168_V165L_YF] | -0.1826 | -0.3324 | -0.04484 | Screen (c-Src kinase domain [1]; [9]): -0.1626; Screen (c-Abl kinase domain [2]; [10]): 0.278
HSSPVYVGRVV [TGM2_Y219_R214H] |  |  |  | Screen (c-Src kinase domain [1]; [6]): 0.1113; Screen (Fer kinase domain; [11]): 0.4894; Screen (variant relative to reference peptide, measured in the pTyr-Var library screen) (EPHB1 kinase domain): 1.553
IFLGAYDRFLP [SLC22A5_Y486_V481I_YF] | -0.2361 |  |  | Screen (c-Src kinase domain [1]; [6]): -0.1658

Molecule | Screen (EPHB2 kinase domain; [7]) | Screen (EPHB1 kinase domain) | Screen (Fer kinase domain; [12]) | further results
IVEELYAIPPD [PEAK1_Y797_S792I] | -0.0205 | 0.4436 | 0.2222 | Screen (c-Src kinase domain [1]; [6]): -0.02431
KKHIPYKEHKS [CSNK1G1_Y205_R206K] |  | -0.623 | -0.8729 | 
KNEIFYQCPDQ [FBXO3_Y223_V221I] | -0.9058 |  | -0.5331 | 
KSNSDYVDVLP [SH2D1B_Y127_N122K] | -0.9717 |  |  | Screen (variant relative to reference peptide, measured in the pTyr-Var library screen) (EPHB1 kinase domain): -0.2971
LEHCQYVTQKV [ALDOB_Y204_E207Q] | -0.3412 | -0.6551 | -1.432 | 
LFEDHYLLGTS [ASS1_Y87_R86H_YF] | -0.9482 | -1.664 |  | 
LSIQTYSALNF [DES_Y423_P419S] | -1.403 | -1.829 | -2.047 | Screen (c-Src kinase domain [1]; [9]): -0.607
MKNDLYQTPLH [NFKB1_Y582_R578K] | -1.089 |  | -0.9562 | Screen (c-Src kinase domain [1]; [6]): -0.3133
PHQTIYGALMI [FGF23_Y70_S71G] | -2.622 | -3.192 | -2.622 | Screen (c-Src kinase domain [1]; [9]): -0.7948
QNTGVYFDLFG [PTPN11_Y62_D61V_YF] | -4.12 | -3.507 |  | Screen (c-Src kinase domain [1]; [6]): 0.4058; Screen (c-Abl kinase domain [2]; [10]): 0.3099
QSSALYEDCFL [ASS1_Y83_R86C_YF] | 1.929 | 1.322 | 0.6979 | Screen (c-Src kinase domain [1]; [9]): 1.263
RNEAFYDTFST [EFCAB3_Y372_S370A] | -2.77 | -3.139 | -0.7665 | Screen (c-Src kinase domain [1]; [9]): -0.05343; Screen (c-Abl kinase domain [2]; [10]): 0.8648
RRIHNYRGHLW [VHL_Y112_S111N] |  |  |  | Screen (c-Src kinase domain [1]; [6]): -2.675; Screen (variant relative to reference peptide, measured in the pTyr-Var library screen) (EPHB1 kinase domain): -1.094
RWQQLYDTLNA [EIF3M_Y351_Q346R] | 0.365 | -0.05321 | -0.4426 | Screen (c-Src kinase domain [1]; [9]): -0.1
SEEVNYATLTF [CLEC12B_Y7_T6N] |  | 0.955 | -0.6417 | Screen (c-Src kinase domain [1]; [9]): -1.881; Screen (c-Abl kinase domain [2]; [10]): 1.648
SISFDYCRVPM [BST2_Y8_T4I_YF] | -2.162 | -2.179 |  | 
TLSGIYQFSIA [FOXL2_Y81_I84S_YF] | -3.18 | -3.13 | -1.302 | Screen (c-Src kinase domain [1]; [9]): -0.1944
VFLGAYDCFLP [SLC22A5_Y486_R488C_YF] | 1.473 |  |  | Screen (c-Src kinase domain [1]; [6]): 0.189; Screen (Fer kinase domain; [11]): 1.979; Screen (variant relative to reference peptide, measured in the pTyr-Var library screen) (EPHB1 kinase domain): 1.419
VFPIDYFFPPQ [AR_Y552_L548F_YF] | 0.813 |  |  | 
WSFNLYDINKD [KCNIP3_Y174_A170S] | -1.005 |  | -0.8483 | Screen (c-Src kinase domain [1]; [9]): -1.011
Ac-GAEEEIYGIFGAKKKG-NH2 [SrcTide (2014) peptide Ac-…-NH2] |  |  |  | KM (μM) of phosphorylation, Michaelis-Menten analysis, ADP-Quest assay [5]: 7 µM
Ac-GAEEEIYGEFEAKKKG-NH2 [SrcTide (1995) peptide Ac-…-NH2] |  |  |  | KM (μM) of phosphorylation, Michaelis-Menten analysis, ADP-Quest assay [5]: 64 µM
